Experimental data from patent publication US6673937B2, “Syntheses and methods of use of new antimitotic agents” (The University of Pittsburgh, priority 2000, dated 2004).

Legend:
fungi = details: cited from earlier work
Bcl-2 = Bcl-2 phosphorylation immunoblot in MCF-7 cells; assay type: cell-based, human
From the text: Attempts to determine the phosphorylation status of Bcl-2 in tsFT210 cells using two different antibodies were unsuccessful due to the antibodies' inability to detect mouse Bcl-2 or the lack of specificity. Therefore, phosphorylated and non-phosphorylated Bcl-2 was detected in lysates from human MCF-7 cells (American Type Culture Collection, Manassas, Va.) treated with microtubule perturbing agents. Equal amounts of protein were separated by electrophoresis on 15% SDS-PAGE followed by immunoblotting with an antihuman Bcl-2 antibody (sc-509, Santa Cruz Biotechnology). Positive antibody reactions were visualized using peroxidase-conjugated secondary antibodies (Jackson ImmunoResearch, West Grove, Pa.) and an enhanced chemiluminescence detection system (Renaissance, NEN, Boston, Mass.) according to manufacturer's instructions.
All known microtubule disrupting compounds cause hyperphosphorylation of the antiapoptotic protein Bcl-2 (Haldar S, Jena N and Croce CM (1995) Inactivation of bcl-2 by phospliorylation. Proc Natl Acad Sci USA 92:4507-4511 and Basu A and Haldar S (1998) Microtubule-damaging drugs trigger bcl2 phosphorylation-requirement of phosphorylation on both serine-70 and serine-87 residues of bcl2 protein. Intl J Oncol 13:659-664). Therefore, the phosphorylation status of Bcl-2 in cells treated with various compounds including SR-7 was examined and the results are illustrated in FIG. 29. Proteins from lysates of MCF-7 cells treated with 0.5 μM paclitaxel, 1 μM nocodozole, 1,μM vincristine and, 3 or 10 μM SR-7 were separated by electrophoresis on 15% SDS-PAGE followed by immunoblotting with an antibody to Bcl-2. The phosphorylated form of Bcl-2 (P) appeared as the upper bands and the underphosphorylated form (U) was the lower band.

tsFT210 cells [1] = experiment: Flow cytometry, G1 transition in tsFT210 cells; assay type: cell-based, mouse; details: 100 μM, additional 6 hours
Cdk1 = experiment: Western blotting for Cdk1 phosphorylation status in tsFT210 cells; assay type: cell-based, mouse; details: 6 hours
Method: tsFT210 cells were harvested using the same procedure for cell synchronizing and drug exposure as described above for the G2/M flow cytometric analysis. The protein lysates were analyzed by Western blotting for Cdk1 as described previously (Tamura K, Southwick EC, Kerns J, Rosi K, Carr BI, Wilcox C and Lazo JS (2000) Cdc25 inhibition and cell cycle arrest by a synthetic thioalkyl vitamin K analogue. Cancer Res 60:1317-1325.). The inventors used Cdk1 isolated from human MCF-7 cells to assay for in vitro inhibition of enzyme activity because of available antibodies and convenience. Asynchronous cells grown at 37° C. in 5% CO2 in DMEM containing 10% fetal bovine serum were treated with lysis buffer and harvested as previously described (Vogt A, Wang AS, Johnson CS, Fabisiak JP, Wipf P and Lazo JS (2000) In vivo antitumor activity and induction of insulin-like growth factor-1 resistant apoptosis by SC-ααδ9. J Pharmacol Exptl Therap 292:530-537.). Cdk1 kinase activity assay was performed as previously described (Yu L, Orlandi L, Wang P, Orr MS, Senderowicz AM, Sausville EA, Silvestrini R, Watanabe N, Piwnica-Worms H, O° Connor PM (1998) UCN-01 arogates G2 arrest through a Cdc2-dependent pathway that is associated with inactivation of the WeelHu kinase and activation of the Cdc25C phosphatase. J Biol Chem 273: 33455-33464.). […] Histone H1 was separated from other proteins by SDS-PAGE and analyzed for incorporation of radioactive phosphate with a Molecular Dynamics STORM 860 Phospholmager (Sunnyvale, CA).
The major controlling molecule for G2/M transition is the cyclin dependent kinase, Cdk1, whose cellular activity is tightly regulated by phosphorylation (Pines J (1999) Four-dimensional control of the cell cycle. Nature Cell Biol 1:E73-79., Hunter T and Pines J (1994) Cyclins and cancer II: cyclin D and CDK inhibitors come of age. Cell 79:573-582). […] The protein lysates were analyzed by Western blotting for Cdk1 content and phosphorylation status as described elsewhere herein. […]

tsFT210 cells [2] = experiment: Flow cytometry, G2/M arrest in tsFT210 cells; assay type: cell-based, mouse; details: 6 hours
Method: Oncogene 18:6989-6996, Th′ng JP, Wright PS, Hamaguchi J, Lee MG, Norbury CJ, Nurse P and Bradbury EM (1990) The FT210 cell line is a mouse G2 phase mutant with a temperature-sensitive CDC2 gene product. Cell 63:313-324.). Cell proliferation was blocked at G2 phase by incubation at 39.4° C. for 17 h. The synchronized cells were then released by re-incubating at 32.0° C. and treated immediately with 0-10 μM SR-7, 1 μM nocodazole or 100 EM SC-ααδ9, respectively, to probe for G2/M arrest. […] The harvested cells were stained with a solution containing 50 μg/ml propidium iodide and 250 μg/ml RNase A. Flow cytometry analysis was conducted with a Becton Dickinson FACS Star (Franklin Lakes, N.J.). […] This G2/M retention at 4C is probably due to the extended cell cycle blockage at 39.4° C. (Osada H, Cui CB, Onose R and Hanaoka F (1997) Screening of cell cycle inhibitors from microbial metabolites by a bioassay using a mouse cdc2 mutant cell line, tsFT210. Bioorg Med Chem 5:193-203). […] SC-ααδ9 is an inhibitor of the Cdc25 family of phosphatases that controls cell cycle checkpoints (Rice RL, Rusnak JM, Yokokawa F, Yokokawa S, Messner DJ, Boynton AL, Wipf P and Lazo JS (1997) A targeted library of small molecule, tyrosine and dual specificity phosphatase inhibitors derived from a rational core design and random side chain variation. Biochemistry 36:15965-15974).

bovine brain tubulin [3] = experiment: GTP-induced tubulin assembly (turbidity); assay type: biochemical
Method: Tubulin without microtubule-associated proteins was isolated from fresh bovine brains (Hamel E and Lin CM (1984). Separation of active tubulin and microtubule-associated proteins by ultracentrifugation and isolation of a component causing the formation of microtubule bundles. Biochemistry 23:4173-4184). Inhibition of assembly reactions was carried out as described previously (Verdier-Pinard P, Lai J-Y, Yoo H-D, Yu J, Marquez B, Nagle DG, Nambu M, White JD, Falck JR, Gerwick WH, Day BW and Hamel E (1998) Structure-activity analysis of the interaction of curacin A, the potent colchicine site antimitotic agent, with tubulin and effects of analogs on the growth of MCF-7 breast cancer cells. Mol Pharmacol 53:62-76.).
The inventors examined the ability of SR-7 to alter tubulin polymerization or depolymerization in vitro. FIG. 28, Panel A. Compounds (predissolved in DMSO) were preincubated with tubulin containing monosodium glutamate at 30 ° C. for 15 min. Samples were cooled to 0 ° C. and GTP was added. Samples were placed in a temperature-controlled multi-cuvette holder of a spectrophotometer held at 0 ° C. Baselines were established and temperature was rapidly raised to 30 ° C. Turbidity development in the cuvettes was measured at 350 nm. FIG. 28, Panel B. Compounds were added to the tubulin plus monosodium glutamate mixture at 0 ° C., placed in the spectrophotometer and temperature was raised to 30 ° C. Addition of 0.4 mM GTP to isolated bovine brain tubulin produced robust polymerization that began to plateau approximately 20 min after microtubule assembly commenced (Panel A).

bovine brain tubulin [4] = experiment: Inhibition of [3H]colchicine binding; details: Mean ± SEM, N = 9
Method: Using methods described previously (Verdier-Pinard P, Lai J-Y, Yoo H-D, Yu J, Marquez B, Nagle DG, Nambu M, White JD, Falck JR, Gerwick WH, Day BW and Hamel E (1998) Structure-activity analysis of the interaction of curacin A, the potent colchicine site antimitotic agent, with tubulin and effects of analogs on the growth of MCF-7 breast cancer cells. Mol Phannacol 53:62-76.). 5,μM [^3H]colchicine was incubated with either 5% DMSO vehicle or compound (5 or 50 μM) at 37° C. for 15 min with 1 μM tubulin in the presence of 1 M monosodium glutamate, 0.1 M glucose-1-phosphate, 1 mM MgCl2, 1 mM GTP and 0.5 mg/ml bovine serum albumin. The solutions were filtered through two stacks of DEAE-cellulose filters and the radioactivity in the filtrate was determined by liquid scintillation spectrometry. Each series of determinations included positive controls of 5 and 50 μM curacin A. The inventors found no evidence that SR-7 could bind to the colchicine site of tubulin. […] The inventors propose that SR-7 may act at another site such as the previously characterized vinca alkaloid site.

In the case of `Oc1ccc(O)c2c1[C@H](O)[C@@H]1O[C@@H]1C21Oc2cccc3cccc(c23)O1` [Palmarumycin C12], the antifungal activity (fungi) is given as “high antifungal activity”.
With `CC(=O)O[C@H]1C(=O)[C@@]2(C)[C@H]([C@H](OC(=O)c3ccccc3)[C@]3(O)C[C@H](OC(=O)[C@H](O)[C@@H](NC(=O)c4ccccc4)c4ccccc4)C(C)=C1C3(C)C)[C@]1(OC(C)=O)CO[C@@H]1C[C@@H]2O` [paclitaxel] the Bcl-2 phosphorylation (Bcl-2; 0.5 μM) was “caused prominent phosphorylation of Bcl-2”.
For `O=C1C=CC(=O)[C@@]23O[C@@]12C1(Oc2cccc4cccc(c24)O1)[C@@H]1O[C@@H]1[C@@H]3O` [Palmarumycin C10], the antifungal activity (fungi) is listed as “high antifungal activity”.
For `CCCCCCCCCC(=O)NC(CCC(=O)N(CCNC(=O)c1nc(-c2ccccc2)oc1-c1ccccc1)Cc1ccccc1)C(=O)O` (stereo not drawn) [SC-ααδ9, 4-(benzyl-(2-[ (2,5-diphenyl-oxazole-4-carbonyl)-amino]-ethyl)-carbamoyl)-2-decanoylamino butyric acid, reference compound], the G1 transition (tsFT210 cells [1]) was “caused a prominent G1 block”, the Cdk1 phosphorylation status (Cdk1; 100 IM, lane 8) was “yielded a hyperphosphorylated Cdk1” and the “G2/M cell cycle transition” value (tsFT210 cells [2]; 100 μM, Panel I) was “G2/M inhibition”.
In the case of `COC(=O)Nc1nc2cc(C(=O)c3cccs3)ccc2[nH]1` [nocodazole], the Bcl-2 phosphorylation (Bcl-2; 1 μM nocodozole) is reported as “caused prominent phosphorylation of Bcl-2”, the Cdk1 phosphorylation status (Cdk1; 1 μM) is reported as “no hyperphosphorylation of Cdk1 was seen” and the “G2/M cell cycle transition” value (tsFT210 cells [2]; 1 μM) is reported as “blocked cell passage through G2/M”.
For `O=C1c2c(O)ccc(O)c2C2(Oc3cccc4cccc(c34)O2)[C@@H]2O[C@H]12` [Palmarumycin C3], the antifungal activity (fungi) is listed as “high antifungal activity”.
In the case of `CC[C@]1(O)C[C@H]2CN(CCc3c([nH]c4ccccc34)[C@@](C(=O)OC)(c3cc4c(cc3OC)N(C=O)[C@H]3[C@@](O)(C(=O)OC)[C@H](OC(C)=O)[C@]5(CC)C=CCN6CC[C@]43[C@@H]65)C2)C1` [vincristine], the Bcl-2 phosphorylation (Bcl-2; 1 μM vincristine) is reported as “caused prominent phosphorylation of Bcl-2”.
In the case of `O=C1CC[C@@H](O)[C@@H]2C1=C(O)C=CC21Oc2cccc3cccc(c23)O1` [Palmarumycin CP4], the antifungal activity (fungi) is listed as “high antifungal activity”.
In the case of `C=CC[C@@H](CC/C(C)=C/C=C/CC/C=C\[C@@H]1CSC([C@@H]2C[C@@H]2C)=N1)OC` [curacin A], the “inhibition of GTP-induced tubulin assembly” value (bovine brain tubulin [3]; 1 μM) is reported as 50%, the “inhibition of GTP-induced tubulin assembly” value (bovine brain tubulin [3]; 5 μM) is reported as “completely inhibited GTP-induced tubulin assembly” and the “Percent inhibition of [3H]colchicine binding” value (“Percent inhibition” for short) (bovine brain tubulin [4]; 5 μM compound, 5 µM) is reported as ~90%. For the same compound, the “Percent inhibition” value (bovine brain tubulin [4]; 5 μM compound, listed as Curacin A, 5 µM) was 89.8 ± 0.6% and the “Percent inhibition” value (bovine brain tubulin [4]; 50 μM compound) was 97.3 ± 3.1%.
